This is an account of results in patent US4463173A, “Cephalosporin derivatives” (ICI Pharma, priority 1979, dated 1984).

≈ marks a conversion by molar mass, not a printed value. Some results are limits rather than exact numbers.

Series [1] has as its system bacterial infection. The series is described as follows: mouse protection test (PD50). The format is in vivo. To be noted: subcutaneous.
Series [2] deals with Strep. pyogenes. The experiment in a line: MIC by agar-dilution technique, Strep. pyogenes A1. Type of series: cell-based. Conditions: Streptococcus pyogenes, No. Code A1, inoculum ~10^5 CFU. The text has this:
(§1) As noted above the cephalosporin derivatives of the invention have antibacterial properties. Thus they are useful antibacterial agents, many of them having a broad spectrum of activity in vitro, against standard laboratory microorganisms, both Gram-negative and Gram-positive, which are used to screen for activity against pathogenic bacteria. The antibacterial spectrum and potency of a particular compound may be determined in a standard test system. […] The antibacterial activity is described in terms of the minimum inhibitory concentration (MIC) determined by agar-dilution technique with an inoculum size of ~10^5 CFU.

Series [3] concerns Staph. aureus. The series is described as follows: MIC by agar-dilution technique, Staph. aureus A6. Type of series: cell-based. To be noted: Staphylococcus aureus, No. Code A6, inoculum ~10^5 CFU.
Source text: as §1

The test system of series [4] is E. coli. The experiment in a line: MIC by agar-dilution technique, E. coli A8. The format is cell-based. To be noted: Escherichia coli, No. Code A8, inoculum ~10^5 CFU.
Source text: as §1

Series [5] has as its system K. aerogenes. The experiment in a line: MIC by agar-dilution technique, K. aerogenes A10. The format is cell-based. To be noted: Klebsiella aerogenes, No. Code A10, inoculum ~10^5 CFU.
Source text: as §1

Series [6] deals with Ent. cloacae. The series is described as follows: MIC by agar-dilution technique, Ent. cloacae A13. Type of series: cell-based. To be noted: Enterobacter cloacae, No. Code A13, inoculum ~10^5 CFU.
Source text: as §1

For series [7], the system named is Serratia marescens. The experiment in a line: MIC by agar-dilution technique, Serratia marescens A16. To be noted: No. Code A16, inoculum ~10^5 CFU. The format is cell-based.
Source text: as §1

Series [8] deals with Proteus mirabilis. The experiment in a line: MIC by agar-dilution technique, Proteus mirabilis A18. The format is cell-based. Conditions: No. Code A18, inoculum ~10^5 CFU.
Source text: as §1

The test system of series [9] is Ps. aeruginosa. The series is described as follows: MIC by agar-dilution technique, Ps. aeruginosa A21. Type of series: cell-based. Conditions: Pseudomonas aeruginosa, No. Code A21, inoculum ~10^5 CFU.
Source text: as §1

Series [10] can be described thus: overt toxic symptoms or side effects in mice. Conditions: single dose of 2 g./kg. The format is in vivo. As to the method: Similarly the compound 7-(imidazol-2-yl)amino-3-(2-methyl-1,3,4-thiadiazol-5-yl)thiomethylceph-3- em-4-carboxylic acid was administered both orally and subcutaneously to mice at a single dose of 2 g./kg.

With `Cn1nnnc1SCC1=C(C(=O)O)N2C(=O)[C@@H](Nc3ncc[nH]3)[C@H]2SC1` [7-(imidazol-2-yl)amino-3-(1H-1-methyltetrazol-5-yl)thiomethylceph-3-em-4-carboxylic acid], in series [1] (dose 100 mg./kg.), the “dose relative to minimum effective dose which protected 50% of the mice against bacterial infection (PD50)” value is “at least ten times”.
In the case of `CC(=O)OCC1=C(C(=O)O)N2C(=O)[C@@H](Nc3nc4c(O)cccc4[nH]3)[C@H]2SC1` [3-acetoxymethyl-7-(4-hydroxybenzimidazol-2-yl)aminoceph-3-em-4-carboxylic acid], the “dose relative to minimum effective dose which protected 50% of the mice against bacterial infection (PD50)” value in series [1] (dose 200 mg./kg.) is reported as “at least ten times”.
As for `CC(=O)OCC1=C(C(=O)O)N2C(=O)[C@@H](Nc3nc4ccccc4[nH]3)[C@H]2SC1`, the MIC in [2] is 2 µg/mL (≈ 5.15 µM); in series [3] it was 2 µg/mL (≈ 5.15 µM); in series [4] it was 2 µg/mL (≈ 5.15 µM); in series [5], 4 µg/mL (≈ 10.3 µM); in [6] it was > 64 µg/mL; in series [7], 64 µg/mL (≈ 165 µM). Moreover, the minimum inhibitory concentration (MIC) in series [8] was 4 µg/mL (≈ 10.3 µM); in series [9], > 64 µg/mL.
On to `CC1=C(C(=O)O)N2C(=O)[C@@H](NC3=NCCN3)[C@H]2SC1`, for which the MIC is 256 µg/mL (≈ 907 µM) in series [2]; > 256 µg/mL in [3]; 8 µg/mL (≈ 28.3 µM) in series [4]; 8 µg/mL (≈ 28.3 µM) in series [5]; 8 µg/mL (≈ 28.3 µM) in series [6]; 32 µg/mL (≈ 113 µM) in series [7]. The MIC in series [8] is 256 µg/mL (≈ 907 µM); in series [9], > 256 µg/mL.
For `CC(=O)OCC1=C(C(=O)O)N2C(=O)[C@@H](Nc3ncc[nH]3)[C@H]2SC1` [3-acetoxymethyl-7-imidazol-2-yl)aminoceph-3-em-4-carboxylic acid], the “dose relative to minimum effective dose which protected 50% of the mice against bacterial infection (PD50)” value in [1] (dose 100 mg./kg.) was “at least ten times”.
As to `CC(=O)OCC1=C(C(=O)O)N2C(=O)[C@@H](Nc3ncc[nH]3)[C@H]2SC1` [drawing 38], the MIC in series [2] came out at 16 µg/mL (≈ 47.3 µM); in series [3] it was 32 µg/mL (≈ 94.6 µM); in [4], 0.12 µg/mL (≈ 0.355 µM); in series [5], 0.5 µg/mL (≈ 1.48 µM); in [6], 4 µg/mL (≈ 11.8 µM); in [7], 1 µg/mL (≈ 2.96 µM). The figures for the minimum inhibitory concentration (MIC) in series [8] and in series [9] were 32 µg/mL (≈ 94.6 µM) and > 256 µg/mL, respectively.
On to `Cc1nnc(SCC2=C(C(=O)O)N3C(=O)[C@@H](Nc4ncc[nH]4)[C@H]3SC2)s1` [7-(imidazol-2-yl)amino-3-(2-methyl-1,3,4-thiadiazol-5-yl)thiomethylceph-3-em-4-carboxylic acid], for which the “overt toxic symptoms or side effects” value in series [10] (oral) and in [10] (subcutaneous) was “no overt toxic symptoms or side effects were noted” each time.
As for `CC(=O)OCC1=C(C(=O)O)N2C(=O)[C@@H](Nc3nc(-c4ccc(N(C)C)cc4)c[nH]3)[C@H]2SC1` [3-acetoxymethyl-7-[4-(4-dimethylamino)phenylimidazol-2-yl]aminoceph-3-em-4-carboxylic acid], the “dose relative to minimum effective dose which protected 50% of the mice against bacterial infection (PD50)” value in series [1] (dose 100 mg./kg.) was “at least ten times”.
